Reference: article PMC3400123 (Bioorganic & medicinal chemistry, 2012)

Columns and labels:
human P-gp-His10 = human P-gp-His10 (Homo sapiens, UniProt P08183); assay: Stimulation of ATPase activity of isolated human P-gp-His10; details: read-out: KM (concentration of compound required to achieve 50% maximal stimulation); isolated human P-gp-His10 in sheep brain phosphatidylethanolamine
MDCKII-MDR1 cells = assay: Transport and cell association across MDCKII-MDR1 monolayers; assay type: in vitro ADME; details: for PAB (+ inh): absorptive direction; for PAB (+ inh) / PBA (+ inh): with 5 × 10^−6 M LSN 335984, 5 × 10^−6 M dye, BSA; for PBA / PBA (+ inh): secretory direction; for PBA: no inhibitor, 5 × 10^−6 M dye, 4.3 mg mL^−1 BSA; for Ratio (+/− inh) for % cell associated dye: inhibited / uninhibited pump

Chain of human P-gp-His10 (P08183 whole entry): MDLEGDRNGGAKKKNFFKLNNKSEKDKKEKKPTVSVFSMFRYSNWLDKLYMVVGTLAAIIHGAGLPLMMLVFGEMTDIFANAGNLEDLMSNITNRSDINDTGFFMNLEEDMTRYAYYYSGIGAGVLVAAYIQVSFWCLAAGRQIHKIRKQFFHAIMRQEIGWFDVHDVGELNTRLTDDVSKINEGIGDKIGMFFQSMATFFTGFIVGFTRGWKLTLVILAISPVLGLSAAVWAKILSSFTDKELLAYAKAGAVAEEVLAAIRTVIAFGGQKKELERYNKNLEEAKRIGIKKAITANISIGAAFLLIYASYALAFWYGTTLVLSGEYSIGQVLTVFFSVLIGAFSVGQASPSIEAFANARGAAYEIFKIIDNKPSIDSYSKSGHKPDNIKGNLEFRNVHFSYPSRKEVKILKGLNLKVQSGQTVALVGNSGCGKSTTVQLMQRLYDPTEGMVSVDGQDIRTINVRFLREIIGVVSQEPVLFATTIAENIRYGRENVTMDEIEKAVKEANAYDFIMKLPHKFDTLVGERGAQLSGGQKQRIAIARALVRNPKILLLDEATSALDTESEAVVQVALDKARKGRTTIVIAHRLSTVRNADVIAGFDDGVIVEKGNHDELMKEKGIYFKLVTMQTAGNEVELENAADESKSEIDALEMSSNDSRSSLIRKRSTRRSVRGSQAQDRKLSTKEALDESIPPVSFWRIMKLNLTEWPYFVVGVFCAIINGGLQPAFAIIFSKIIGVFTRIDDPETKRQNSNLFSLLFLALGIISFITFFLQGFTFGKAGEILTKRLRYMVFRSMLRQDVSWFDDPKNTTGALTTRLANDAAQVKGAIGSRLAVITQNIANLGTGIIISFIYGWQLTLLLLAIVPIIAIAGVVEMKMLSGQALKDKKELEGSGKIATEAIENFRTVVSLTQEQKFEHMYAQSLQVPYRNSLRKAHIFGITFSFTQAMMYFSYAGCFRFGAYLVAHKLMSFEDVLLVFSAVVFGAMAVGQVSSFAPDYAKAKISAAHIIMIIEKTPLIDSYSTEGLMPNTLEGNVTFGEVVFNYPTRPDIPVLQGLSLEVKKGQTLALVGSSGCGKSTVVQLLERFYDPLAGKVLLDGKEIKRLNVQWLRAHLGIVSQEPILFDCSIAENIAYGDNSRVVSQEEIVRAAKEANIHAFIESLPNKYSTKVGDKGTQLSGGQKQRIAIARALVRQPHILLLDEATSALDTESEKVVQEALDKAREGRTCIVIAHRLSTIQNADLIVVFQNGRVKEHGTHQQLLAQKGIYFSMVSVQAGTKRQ

| Compound | Km (human P-gp-His10) [µM] | PAB (+ inh) (MDCKII-MDR1 cells) | PBA (MDCKII-MDR1 cells) | Ratio (+/− inh) for % cell associated dye (MDCKII-MDR1 cells) | PBA (+ inh) (MDCKII-MDR1 cells) |
| --- | --- | --- | --- | --- | --- |
| CCN(CC)C(=O)c1ccc(-c2c3ccc(N(C)C)cc3[s+]c3cc(N(C)C)ccc23)s1 [Compound 1, 3,6-bis(dimethylamino)-9-(5-(diethylcarbamoyl)thiophen-2-yl)thioxan-thylium hexafluorophosphate] | 5.7 ± 1 |  |  |  |  |
| CCN(CC)C(=S)c1ccc(-c2c3ccc(N(C)C)cc3[s+]c3cc(N(C)C)ccc23)s1.F[P-](F)(F)(F)(F)F [Compound 2, 3,6-bis(dimethylamino)-9-(5-(diethylcarbamothioyl)thiophen-2-yl)thioxanthylium hexafluorophosphate] | 5.8 ± 0.6 | ≤ 1 ≤ 1 10^−9 m s^−1 | 210 ± 17 10^−9 m s^−1 |  |  |
| CCN(CC)C(=S)c1ccc(-c2c3ccc(N(C)C)cc3[s+]c3c4c5c(cc23)CCCN5CCC4)s1.F[P-](F)(F)(F)(F)F [Compound 6, 12-(Dimethylamino)-2,3,6,7-tetrahydro-9-(5-(diethylcarbamothioyl)-thiophen-2-yl)-1H,5H-thioxantheno[2,3,4-ij]quinolizin-14-ium hexafluorophosphate] | 2.3 ± 0.4 | ≤ 1 ≤ 1 10^−9 m s^−1 | 65.0 ± 1.5 10^−9 m s^−1 | 1.2-2.1 | 2.7 ± 0.1 10^−9 m s^−1 |
| CN(C)c1ccc2c(-c3ccc(C(=O)N4CCCCC4)s3)c3cc4c5c(c3[s+]c2c1)CCCN5CCC4.F[P-](F)(F)(F)(F)F [Compound 7, 12-(dimethylamino)-2,3,6,7-tetrahydro-9-(N-piperidyl-2-thienyl-5-carboxamido)-1H,5H-thioxantheno[2,3,4-ij]quinolizin-14-ium hexafluorophosphate] | 1.9 ± 0.4 | ≤ 1 ≤ 1 10^−9 m s^−1 | 220 ± 29 10^−9 m s^−1 | 3.3-6.1 | 8.1 ± 0.1 10^−9 m s^−1 |

Next, values leading:

| Km (human P-gp-His10) [µM] | PAB (+ inh) (MDCKII-MDR1 cells) | PBA (MDCKII-MDR1 cells) | Ratio (+/− inh) for % cell associated dye (MDCKII-MDR1 cells) | PBA (+ inh) (MDCKII-MDR1 cells) | Compound |
| --- | --- | --- | --- | --- | --- |
| 3.6 ± 0.4 | ≤ 1 ≤ 1 10^−9 m s^−1 | 210 ± 22 10^−9 m s^−1 | 3.3-6.1 | 17.0 ± 0.4 10^−9 m s^−1 | CCN(CC)C(=O)c1ccc(-c2c3ccc(N(C)C)cc3[s+]c3c4c5c(cc23)CCCN5CCC4)s1.F[P-](F)(F)(F)(F)F [Compound 5, 12-(dimethylamino)-2,3,6,7-tetrahydro-9-(5-(diethylcarbamoyl)thiophen-2-yl)-1H,5H-thioxantheno[2,3,4-ij]quinolizin-14-ium hexafluorophosphate] |
| 3.1 ± 0.7 | ≤ 1 ≤ 1 10^−9 m s^−1 |  | 1.2-2.1 | 1.0 ± 0.1 10^−9 m s^−1 | CCN(CC)C(=S)c1ccc(-[c+]2c3ccc(N(C)C)cc3sc3cc4c(cc32)C(C)(C)CCN4C)s1.F[P-](F)(F)(F)(F)F [Compound 10, 6-(5-(diethylcarbamothioyl)thiophen-2-yl)-9-(dimethylamino)-1,4,4-trimethyl-2,3,4,6-tetrahydro-1H-thiochromeno[3,2-g]quinolin-6-ylium hexafluorophosphate] |
| 2.2 ± 1 | ≤ 1 ≤ 1 10^−9 m s^−1 | 370 ± 17 10^−9 m s^−1 | 3.3-6.1 | 27.0 ± 0.3 10^−9 m s^−1 | CCN(CC)C(=O)c1ccc(-[c+]2c3ccc(N(C)C)cc3sc3cc4c(cc32)C(C)(C)CCN4C)s1.F[P-](F)(F)(F)(F)F [Compound 9, 6-(5-(diethylcarbamoyl)thiophen-2-yl)-9-(dimethylamino)-1,4,4-trimethyl-2,3,4,6-tetrahydro-1H-thiochromeno[3,2-g]quinolin-6-ylium hexafluorophosphate] |
